Patent US20080213236A1, “Natural Remedy-Dietary Supplement Combination Product” (priority 2005, published 2008)

Tests used:
[1] = test system: patients with rheumatoid arthritis; assay: Treatment of rheumatoid arthritis patients with the individual substances or extracts A-F; assay type: in vivo, human; details: for alleviation/reduction of joint pain / improvement in joint sensitivity: after two weeks; for Result of treatment, scale of 1-10: individual substance, scale from 1 (scarcely any alleviation of symptoms) to 10 (complete elimination of symptoms)
Experimental: All the abovementioned active ingredients or medicinal plant extracts A-F were tested singly in the treatment of rheumatoid arthritis. The following products and daily doses were used for this: A. Omega-3 fatty acids: 8 capsules of Ameu® 500 mg. One capsule of Ameu contains 500 mg of fish body oil (fatty oil from […] comprises 70 mg of eicosapentaenoic acid and 50 mg of docosahexaenoic acid (total 120 mg of omega-3 fatty acids). B. α-Tocopherol (vitamin E): 800 to 1000 I.U. once a day. C. Ascorbic acid (vitamin C): 3 g in three 1000 mg doses. D. Selenium: 300 μg of selenium as sodium selenite 5H2O ([…]® or […]®) once a day. E. Harpagophytum: 2×480 mg of dry extract once a day (extractant: ethanol 60% (V/V) (BIOCUR Arzneimittel GmbH). F. Boswellia serrata: 3×400 mg of dry extract once a day (H 15 Gufic tablets (Gufic Chem, India)). […] A positive rheumatoid factor was not obligatory. All the treated patients had elevated C-reactive protein and frequently raised ferritin as signs of inflammation. Bacterial and parasitic causes, and allergies (including yersinia, staphylococci, streptococci, mycoplasma, Whipple's disease, borreliosis and gluten allergies) were excluded. […] All the patients had discontinued their previous medication (morphine, ibuprofen, cortisol, etc.) at least one week before starting the treatment, or had received no medical therapy over a prolonged period because of toxic side effects of other medicaments. The results of treatment were classified on a scale of from 1 (scarcely any alleviation of symptoms) to 10 (complete elimination of symptoms).

[2] = single substance; cited from earlier work
[3] = test system: rheumatoid arthritis; details: vitamin E alone, 1200 mg/day, without influencing the immune markers; cited from earlier work

Compound | alleviation/reduction of joint pain [1] | improvement in joint sensitivity [1] | Result of treatment, scale of 1-10 [1] | effectiveness compared with total root extract [2] | pain [3]
O=C1O[C@H]([C@@H](O)CO)C(O)=C1O [Ascorbic acid (vitamin C), Ascorbic acid] | 2-5% | 5-10% | 2 |  | 
C[C@]1(OC(=O)/C=C/c2ccccc2)C[C@@H](O)[C@]2(O)C=CO[C@@H](O[C@@H]3O[C@H](CO)[C@@H](O)[C@H](O)[C@H]3O)[C@@H]21 [Harpagoside] |  |  |  | far less effective than the total root extract | 
Cc1c(C)c2c(c(C)c1O)CC[C@@](C)(CCC[C@H](C)CCC[C@H](C)CCCC(C)C)O2 [α-Tocopherol (vitamin E), α-Tocopherol] | 5% | 10% | 3.0 |  | alleviation of pain
